According to patent US20240376094A2, “SELECTIVE BCL-XL PROTAC COMPOUNDS AND METHODS OF USE” (Les Laboratoires Servier, priority 2021, published 2024):

How the values were obtained:
MOLT-4 cells = assay: MOLT-4 cell viability, CTG assay; format: cell-based; conditions: Homo sapiens, MOLT-4, 48 h
Description: The MTT colorimetric assay is based on the mitochondrial reduction of tetrazolium salt by living cells. The viable cell number is proportional to the production of formazan salts, which can be read spectrophotometrically at 540 nm. The CTG luminescent assay (CellTiter GLO, Promega) is based on a reagent which lyses cells and measures total adenosine triphosphate (ATP) content. The viable cell number is proportional to the production of ATP.
MOLT-4 cells were purchased from ATCC and cultivated in RPMI 1640 supplemented with 10% heat inactivated fetal bovine serum, penicillin (100 IU/mi), streptomycin (100 μg/ml) and L-glutamine (2 mM). Cells were cultured at 37° C. in a humidified atmosphere containing 5% […].
For CTG assay, cells were seeded in 384 microwell plates (40 μL per well) and exposed to the compounds for 48 h (11-point serial dilution with 5-fold factor, triplicates). At the end of incubation time, 40 μL of CTG solution were added per well. Wells were mixed thoroughly, and plates were incubated at room temperature for 10 minutes to stabilize luminescent signals prior to reading using a luminescence reader (PHERAStar FSX Reader, BMG Labtech).
IC50, were calculated using standard four-parametric curve fitting. IC50 is defined as the compound concentration at which the MTT or CTG signal is reduced to 50% of that measured for the control. Results shown in Table 14 represent the mean of at least 2 independent experiments.

Bcl-xL = target: T1, Bcl-xL (Homo sapiens, UniProt Q07817); assay: HCT116 Bcl-xL degradation, capillary-based immunoassay (WES); format: cell-based; conditions: for DC50: HCT116, 24 h, 9-point serial dilution
T1 construct: Measured levels of Bcl-xL protein of HCT116 cells treated with the tested compounds; host or cells: HCT116
Method: HCT116 cells were purchased from ATCC and cultivated in RPMI 1640 supplemented with 10% heat inactivated fetal bovine serum, penicillin (100 IU/mi), streptomycin (100 μg/ml) and L-glutamine (2 mM). Cells were cultured at 37° C. in a humidified atmosphere containing 5% CO2. Cells were seeded in 96 microwell plates, 24 h later cells were treated with compounds (2-point 10/100 nM and/or 9-point serial dilution to determine DC50; quadruplicates) during 24 h and harvested in lysis buffer containing 10 mM Hepes (pH 7.5), 150 mM KCl, 5 mM MgCl2, 1 mM EDTA, 0.4% TritonX100, protease and phosphatase inhibitors cocktails (Calbiochem).
Protein concentration in the supernatants was determined using the Pierce BCA protein assay kit (Thermo Fisher Scientific). Lysates (1.5 μg/μL) were analyzed using an automated capillary electrophoresis WES system with 2-40 kDa Wes Separation Module (25 capillary cartridges, Proteinsimple), in accordance with the manufacturer's protocols. Antibodies against the following proteins were used: Bcl-xL (#2764, Cell Signaling Technology, 1:50) and cofilin (#5175, Cell Signaling Technology, 1:1000). Signals were detected with an HRP-conjugated secondary anti-rabbit antibody (#042-206, Proteinsimple) and were quantified using Compass software (version 4.0, Proteinsimple).
Bcl-xL level was calculated by normalizing Bcl-xL values to cofilin and expressed as a percentage of the normalized value of the untreated cells. DC50 were calculated using standard four-parametric curve fitting. DC50 is defined as the compound concentration at which Bcl-xL is reduced to 50% of that measured for the control. Measured levels of Bcl-xL protein of HCT116 cells treated with the tested compounds at 2-point 10 nM/100 nM and/or 9-point for DC50 determination are shown in Table 15.

T1 sequence (Q07817 whole entry): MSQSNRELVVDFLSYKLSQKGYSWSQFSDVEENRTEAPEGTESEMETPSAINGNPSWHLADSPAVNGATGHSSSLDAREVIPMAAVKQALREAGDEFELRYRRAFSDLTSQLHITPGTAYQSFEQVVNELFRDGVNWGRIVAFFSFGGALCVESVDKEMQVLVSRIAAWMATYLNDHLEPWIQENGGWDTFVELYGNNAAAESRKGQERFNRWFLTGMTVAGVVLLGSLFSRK

SMILES | IC50 (MOLT-4 cells) | DC50 (Bcl-xL) | remaining activity at 0.01 µM (Bcl-xL; HCT-116, HCT116, 10 nM, 24 h, % of untreated cells) | remaining activity at 0.1 µM (Bcl-xL; HCT-116, HCT116, 100 nM, 24 h, % of untreated cells)
Cc1c(Nc2nc3ccccc3s2)nnc2c1CCCN2c1ccc(-c2cnn(CC34CC5(C)CC(C)(C3)CC(OCCN(C)CCCCCCCOc3ccc6c(c3)C(=O)N(C3CCC(=O)NC3=O)C6=O)(C5)C4)c2C)c(C(=O)O)n1 (stereo not drawn) [Example 106, 6-[3-(1,3-benzothiazol-2-ylamino)-4-methyl-6,7-dihydro-5H-pyrido[2,3-c]pyridazin-8-yl]-3-[1-[[3-[2-[7-[2-(2,6-dioxo-3-piperidyl)-1,3-dioxo-isoindolin-5-yl]oxyheptyl-methyl-amino]ethoxy]-5,7-dimethyl-1-adamantyl]methyl]-5-methyl-pyrazol-4-yl]pyridine-2-carboxylic acid] | 2.63 nM | 0.211 nM |  | 
CN[C@@H](C)C(=O)N[C@H](C(=O)N1CCC[C@H]1c1nc(C(=O)c2cccc(OCCCCCCCCCCCCN(C)CCOC34CC5(C)CC(C)(CC(Cn6ncc(-c7ccc(N8CCCc9c8nnc(Nc8nc%10ccccc%10s8)c9C)nc7C(=O)O)c6C)(C5)C3)C4)c2)cs1)C1CCCCC1 [Example 96, 6-[3-(1,3-benzothiazol-2-ylamino)-4-methyl-6,7-dihydro-5H-pyrido[2,3-c]pyridazin-8-yl]-3-[1-[[3-[2-[12-[3-[2-[(2S)-1-[(2S)-2-cyclohexyl-2-[[(2S)-2-(methylamino)propanoyl]amino]acetyl]pyrrolidin-2-yl]thiazole-4-carbonyl]phenoxy]dodecyl-methyl-amino]ethoxy]-5,7-dimethyl-1-adamantyl]methyl]-5-methyl-pyrazol-4-yl]pyridine-2-carboxylic acid] | 4.36 nM | > 316 nM |  | 
Cc1c(Nc2nc3ccccc3s2)nnc2c1CCCN2c1ccc(-c2cnn(CC34CC5(C)CC(C)(C3)CC(OCCN(C)CCCCCCCCC(=O)N3CCC(c6ccc7c(c6)CN(C6CCC(=O)NC6=O)C7=O)CC3)(C5)C4)c2C)c(C(=O)O)n1 (stereo not drawn) [Example 71, 6-[3-(1,3-benzothiazol-2-ylamino)-4-methyl-6,7-dihydro-5H-pyrido[2,3-c]pyridazin-8-yl]-3-[1-[[3-[2-[[9-[4-[2-(2,6-dioxo-3-piperidyl)-1-oxo-isoindolin-5-yl]-1-piperidyl]-9-oxo-nonyl]-methyl-amino]ethoxy]-5,7-dimethyl-1-adamantyl]methyl]-5-methyl-pyrazol-4-yl]pyridine-2-carboxylic acid] | 10.2 nM | > 316 nM |  | 
CN[C@@H](C)C(=O)N[C@H](C(=O)N1CCC[C@H]1c1nc(C(=O)c2cccc(OCCCCCCCCCCN(C)CCOC34CC5(C)CC(C)(CC(Cn6ncc(-c7ccc(N8CCCc9c8nnc(Nc8nc%10ccccc%10s8)c9C)nc7C(=O)O)c6C)(C5)C3)C4)c2)cs1)C1CCCCC1 [Example 98, 6-[3-(1,3-benzothiazol-2-ylamino)-4-methyl-6,7-dihydro-5H-pyrido[2,3-c]pyridazin-8-yl]-3-[1-[[3-[2-[10-[3-[2-[(2S)-1-[(2S)-2-cyclohexyl-2-[[(2S)-2-(methylamino)propanoyl]amino]acetyl]pyrrolidin-2-yl]thiazole-4-carbonyl]phenoxy]decyl-methyl-amino]ethoxy]-5,7-dimethyl-1-adamantyl]methyl]-5-methyl-pyrazol-4-yl]pyridine-2-carboxylic acid] | 4.74 nM | 0.362 nM |  | 
Cc1c(Nc2nc3ccccc3s2)nnc2c1CCCN2c1ccc(-c2cnn(CC34CC5(C)CC(C)(C3)CC(OCCN(C)CCCCCCCCCC(=O)N3CCC(c6ccc7c(c6)CN(C6CCC(=O)NC6=O)C7=O)CC3)(C5)C4)c2C)c(C(=O)O)n1 (stereo not drawn) [Example 70, 6-[3-(1,3-benzothiazol-2-ylamino)-4-methyl-6,7-dihydro-5H-pyrido[2,3-c]pyridazin-8-yl]-3-[1-[[3-[2-[[10-[4-[2-(2,6-dioxo-3-piperidyl)-1-oxo-isoindolin-5-yl]-1-piperidyl]-10-oxo-decyl]-methyl-amino]ethoxy]-5,7-dimethyl-1-adamantyl]methyl]-5-methyl-pyrazol-4-yl]pyridine-2-carboxylic acid] | 7.48 nM |  | 101% | 90%
Cc1c(Nc2nc3ccccc3s2)nnc2c1CCCN2c1ccc(-c2cnn(CC34CC5(C)CC(C)(C3)CC(OCCN(C)CCCCCC(=O)N3CCC(c6ccc7c(c6)CN(C6CCC(=O)NC6=O)C7=O)CC3)(C5)C4)c2C)c(C(=O)O)n1 (stereo not drawn) [Example 67, 6-[3-(1,3-benzothiazol-2-ylamino)-4-methyl-6,7-dihydro-5H-pyrido[2,3-c]pyridazin-8-yl]-3-[1-[[3-[2-[[6-[4-[2-(2,6-dioxo-3-piperidyl)-1-oxo-isoindolin-5-yl]-1-piperidyl]-6-oxo-hexyl]-methyl-amino]ethoxy]-5,7-dimethyl-1-adamantyl]methyl]-5-methyl-pyrazol-4-yl]pyridine-2-carboxylic acid] | 24.2 nM | > 316 nM |  | 
Cc1ncsc1-c1ccc([C@H](C)NC(=O)[C@@H]2C[C@@H](O)CN2C(=O)[C@@H](NC(=O)CCCCCCCCCCCCCN(C)CCOC23CC4(C)CC(C)(CC(Cn5ncc(-c6ccc(N7CCCc8c7nnc(Nc7nc9ccccc9s7)c8C)nc6C(=O)NC(C)C)c5C)(C4)C2)C3)C(C)(C)C)cc1 [Example 157, 6-[3-(1,3-benzothiazol-2-ylamino)-4-methyl-6,7-dihydro-5H-pyrido[2,3-c]pyridazin-8-yl]-3-[1-[[3-[2-[[14-[[(1S)-1-[(2S,4R)-4-hydroxy-2-[[(1S)-1-[4-(4-methylthiazol-5-yl)phenyl]ethyl]carbamoyl]pyrrolidine-1-carbonyl]-2,2-dimethyl-propyl]amino]-14-oxo-tetradecyl]-methyl-amino]ethoxy]-5,7-dimethyl-1-adamantyl]methyl]-5-methyl-pyrazol-4-yl]-N-isopropyl-pyridine-2-carboxamide] | 7.62 nM | 18.8 nM |  | 
Cc1c(Nc2nc3ccccc3s2)nnc2c1CCCN2c1ccc(-c2cnn(CC34CC5(C)CC(C)(C3)CC(OCCN(C)CCCCCCCCCOc3ccc6c(c3)C(=O)N(C3CCC(=O)NC3=O)C6=O)(C5)C4)c2C)c(C(=O)O)n1 (stereo not drawn) [Example 104, 6-[3-(1,3-benzothiazol-2-ylamino)-4-methyl-6,7-dihydro-5H-pyrido[2,3-c]pyridazin-8-yl]-3-[1-[[3-[2-[9-[2-(2,6-dioxo-3-piperidyl)-1,3-dioxo-isoindolin-5-yl]oxynonyl-methyl-amino]ethoxy]-5,7-dimethyl-1-adamantyl]methyl]-5-methyl-pyrazol-4-yl]pyridine-2-carboxylic acid] | 1.74 nM | 0.0184 nM |  | 
Cc1c(Nc2nc3ccccc3s2)nnc2c1CCCN2c1ccc(-c2cnn(CC34CC5(C)CC(C)(C3)CC(OCCN(C)CCCCCCCCCCCCCCOc3ccc6c(c3)C(=O)N(C3CCC(=O)NC3=O)C6=O)(C5)C4)c2C)c(C(=O)O)n1 (stereo not drawn) [Example 142, 6-[3-(1,3-benzothiazol-2-ylamino)-4-methyl-6,7-dihydro-5H-pyrido[2,3-c]pyridazin-8-yl]-3-[1-[[3-[2-[14-[2-(2,6-dioxo-3-piperidyl)-1,3-dioxo-isoindolin-5-yl]oxytetradecyl-methyl-amino]ethoxy]-5,7-dimethyl-1-adamantyl]methyl]-5-methyl-pyrazol-4-yl]pyridine-2-carboxylic acid] | 3.76 nM | 0.341 nM |  | 
Cc1c(Nc2nc3ccccc3s2)nnc2c1CCCN2c1ccc(-c2cnn(CC34CC5(C)CC(C)(C3)CC(OCCN(C)CCCCCCCCOc3cccc6c3C(=O)N(C3CCC(=O)NC3=O)C6=O)(C5)C4)c2C)c(C(=O)O)n1 (stereo not drawn) [Example 143, 6-[3-(1,3-benzothiazol-2-ylamino)-4-methyl-6,7-dihydro-5H-pyrido[2,3-c]pyridazin-8-yl]-3-[1-[[3-[2-[8-[2-(2,6-dioxo-3-piperidyl)-1,3-dioxo-isoindolin-4-yl]oxyoctyl-methyl-amino]ethoxy]-5,7-dimethyl-1-adamantyl]methyl]-5-methyl-pyrazol-4-yl]pyridine-2-carboxylic acid] | 5.28 nM | > 316 nM |  | 
